Reference: patent US7884117B2, “Carbonylamino pyrrolopyrazoles, potent kinase inhibitors” (Pfizer Inc., priority 2005, dated 2011)

Key:
[1] = biological target: T1, PAK4 Kinase domain (PAK4 KD) (Homo sapiens, UniProt O96013); assay: PAK4 kinase domain enzymatic assay (PK/LDH-coupled, Ki); type: biochemical; details: PAK4 Kinase Domain
T1 construct: Cloning, expression, and purification of recombinant PAK4 Kinase domain (PAK4 KD); His tag (pET28a(+)/pET24a(+), Ni-NTA purification) (N, cleaved yes); GST (pGST4.5, glutathione column) (N, cleaved yes); made in house; host or cells: E. coli BL21(DE3)

[2] = biological target: T2, PAK4 kinase activity in whole cells (TR-293-KDG, modified HEK 293) (Homo sapiens, UniProt O96013); assay: PAK4 cellular assay: sandwich ELISA of PAK4-dependent phosphorylation of GEF-H1b in TR-293-KDG cells; type: cell-based; details: 3-hour exposure
T2 construct: engineered to overexpress both GEF-H1b and the kinase domain (KD) of PAK4; expressed in transfected cells; host or cells: TR-293-KDG (modified HEK 293, Trex system, Invitrogen)
T2 sequence (O96013 321-572 limits assumed): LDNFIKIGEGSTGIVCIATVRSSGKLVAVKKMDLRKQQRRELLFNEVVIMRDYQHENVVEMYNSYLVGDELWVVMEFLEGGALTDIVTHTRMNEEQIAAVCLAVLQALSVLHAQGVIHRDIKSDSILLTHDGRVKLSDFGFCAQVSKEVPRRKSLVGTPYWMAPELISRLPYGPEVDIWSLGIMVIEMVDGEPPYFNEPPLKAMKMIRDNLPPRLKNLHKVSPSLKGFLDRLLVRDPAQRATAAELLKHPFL

T1 sequence (O96013 321-572 limits assumed): as above

| Ki [1] [nM] | EC50 [2] [nM] | Compound |
| --- | --- | --- |
| 13.6 | 148 | COc1ccc(CC(=O)Nc2n[nH]c3c2CN(C(=O)N[C@H](CN(C)C)c2ccccc2)C3(C)C)cc1 [Example 55, N-[(1S)-2-(dimethylamino)-1-phenylethyl]-3-{[(4-methoxyphenyl)acetyl]amino}-6,6-dimethyl-4,6-dihydropyrrolo[3,4-c]pyrazole-5(1H)-carboxamide] |
| 6.9 | 37.1 | CN(C)C[C@@H](NC(=O)N1Cc2c(NC(=O)[C@@H]3C[C@H]3c3ccccc3)n[nH]c2C1(C)C)c1ccccc1 [Example 56, N-[(1S)-2-(dimethylamino)-1-phenylethyl]-6,6-dimethyl-3-({[trans-2-phenylcyclopropyl]carbonyl}amino)-4,6-dihydropyrrolo[3,4-c]pyrazole-5(1H)-carboxamide] |
| 11.3 | 16 | CN(C)C[C@@H](NC(=O)N1Cc2c(NC(=O)c3cccs3)n[nH]c2C1(C)C)c1ccccc1 [Example 57, N-[(1S)-2-(dimethylamino)-1-phenylethyl]-6,6-dimethyl-3-[(2-thienylcarbonyl)amino]-4,6-dihydropyrrolo[3,4-c]pyrazole-5(1H)-carboxamide] |
| 48.2 | 34.1 | CN(C)C[C@@H](OC(=O)N1Cc2c(NC(=O)c3cscn3)n[nH]c2C1(C)C)c1ccccc1 [Example 68, (1S)-2-(dimethylamino)-1-phenylethyl 6,6-dimethyl-3-[(1,3-thiazol-4-ylcarbonyl)amino]-4,6-dihydropyrrolo[3,4-c]pyrazole-5(1H)-carboxylate] |
| 149 | 226 | CN(C)C[C@@H](OC(=O)N1Cc2c(NC(=O)c3cn(C)cn3)n[nH]c2C1(C)C)c1ccccc1 [Example 69, (1S)-2-(dimethylamino)-1-phenylethyl 6,6-dimethyl-3-{[(1-methyl-1H-imidazol-4-yl)carbonyl]amino}-4,6-dihydropyrrolo[3,4-c]pyrazole-5(1H)-carboxylate] |
| 101 | 84.1 | CN(C)C[C@@H](NC(=O)N1Cc2c(n[nH]c2NC(=O)c2nccs2)C1(C)C)c1ccccc1 [Example 71, N-[(1S)-2-(dimethylamino)-1-phenylethyl]-6,6-dimethyl-3-[(1,3-thiazol-2-ylcarbonyl)amino]-4,6-dihydropyrrolo[3,4-c]pyrazole-5(1H)-carboxamide] |
| 93.8 | 362 | CN(C)C[C@@H](NC(=O)N1Cc2c(NC(=O)c3cscn3)n[nH]c2C1(C)C)c1ccccc1 [Example 72, N-[(1S)-2-(dimethylamino)-1-phenylethyl]-6,6-dimethyl-3-[(1,3-thiazol-4-ylcarbonyl)amino]-4,6-dihydropyrrolo[3,4-c]pyrazole-5(1H)-carboxamide] |
| 354 | 200 | C[C@@H](CN(C)C)OC(=O)N1Cc2c(NC(=O)c3ccccc3)n[nH]c2C1(C)C [Example 73, (1S)-2-(dimethylamino)-1-methylethyl 3-(benzoylamino)-6,6-dimethyl-4,6-dihydropyrrolo [3,4-c]pyrazole-5(1H)-carboxylate] |
| 73.1 | 115 | CN(C)C[C@@H](OC(=O)N1Cc2c(NC(=O)c3ccc(F)cc3)n[nH]c2C1(C)C)C1CCCCC1 [Example 75, (1S)-1-cyclohexyl-2-(dimethylamino)ethyl 3-[(4-fluorobenzoyl)amino]-6,6-dimethyl-4,6-dihydropyrrolo[3,4-c]pyrazole-5(1H)-carboxylate] |
| 345 | 167 | COC[C@@H](CN(C)C)OC(=O)N1Cc2c(NC(=O)c3ccc(F)cc3)n[nH]c2C1(C)C [Example 77, (1R)-2-(dimethylamino)-1-(methoxymethyl)ethyl 3-[(4-fluorobenzoyl)amino]-6,6-dimethyl-4,6-dihydropyrrolo[3,4-c]pyrazole-5(1H)-carboxylate] |
| 96 | 2120 | CC(C)C[C@@H](CN(C)C)OC(=O)N1Cc2c(NC(=O)c3ccc(C(F)(F)F)cc3)n[nH]c2C1(C)C [Example 79, (1S)-1-[(dimethylamino)methyl]-3-methylbutyl 6,6-dimethyl-3-{[4-(trifluoromethyl)benzoyl]amino}-4,6-dihydropyrrolo[3,4-c]pyrazole-5(1H)-carboxylate] |
| 756 | 12 | CC(C)C[C@@H](CN(C)C)OC(=O)N1Cc2c(NC(=O)C3CCC3)n[nH]c2C1(C)C [Example 80, (S)-1-[(dimethylamino)methyl]-3-methylbutyl 3-[(cyclobutylcarbonyl)amino]-6,6-dimethyl-4,6-dihydropyrrolo[3,4-c]pyrazole-5(1H)-carboxylate] |
| 240 | 104 | CN(C)C[C@@H](OC(=O)N1Cc2c(NC(=O)c3cccc4c3OCC4)n[nH]c2C1(C)C)c1ccccc1 [Example 81, (1S)-2-(dimethylamino)-1-phenylethyl 3-[(2,3-dihydro-1-benzofuran-7-ylcarbonyl)amino]-6,6-dimethyl-4,6-dihydropyrrolo[3,4-c]pyrazole-5(1H)-carboxylate] |
| 434 | 301 | CN(Cc1ccccc1)C[C@@H](OC(=O)N1Cc2c(NC(=O)c3ccc(F)cc3)n[nH]c2C1(C)C)c1ccccc1 [Example 82, (1S)-2-[benzyl(methyl)amino]-1-phenylethyl 3-[(4-fluorobenzoyl)amino]-6,6-dimethyl-4,6-dihydropyrrolo[3,4-c]pyrazole-5(1H)-carboxylate] |
| 143 | 4 | CN(C)C[C@@H](OC(=O)N1Cc2c(NC(=O)c3ccno3)n[nH]c2C1(C)C)c1ccccc1 [Example 85, (S)-2-(dimethylamino)-1-phenylethyl 3-(isoxazole-5-carboxamido)-6,6-dimethylpyrrolo[3,4-c]pyrazole-5(1H,4H,6H)-carboxylate] |
| 68.7 | 18 | Cc1cc(C(=O)Nc2n[nH]c3c2CN(C(=O)O[C@H](CN(C)C)c2ccccc2)C3(C)C)no1 [Example 86, (S)-2-(dimethylamino)-1-phenylethyl 6,6-dimethyl-3-(5-methylisoxazole-3-carboxamido)pyrrolo[3,4-c]pyrazole-5(1H,4H,6H)-carboxylate] |
| 35.6 | 88 | COc1ccc(CC(=O)Nc2n[nH]c3c2CN(C(=O)O[C@H](CN(C)C)c2ccccn2)C3(C)C)cc1 [Example 88, (1R)-2-(dimethylamino)-1-pyridin-2-ylethyl 3-{[(4-methoxyphenyl)-acetyl]amino}-6,6-dimethyl-4,6-dihydropyrrolo[3,4-c]pyrazole-5(1H)-carboxylate] |
| 156 | 10 | CN(C)C[C@@H](OC(=O)N1Cc2c(NC(=O)[C@H]3CCCO3)n[nH]c2C1(C)C)c1ccccc1 [Example 89, (S)-2-(dimethylamino)-1-phenylethyl 6,6-dimethyl-3-((R)-tetrahydrofuran-2-carboxamido)pyrrolo[3,4-c]pyrazole-5(1H,4H,6H)-carboxylate] |
| 251 | 4 | CO[C@@H](C)C(=O)Nc1n[nH]c2c1CN(C(=O)O[C@H](CN(C)C)c1ccccc1)C2(C)C [Example 90, (S)-2-(dimethylamino)-1-phenylethyl 3-((S)-2-methoxypropanamido)-6,6-dimethylpyrrolo[3,4-c]pyrazole-5(1H,4H,6H)-carboxylate] |
| 345 | 103 | CN(C)C[C@@H](OC(=O)N1Cc2c(NC(=O)[C@@H]3CCCO3)n[nH]c2C1(C)C)c1ccccc1 [Example 92, (S)-2-(dimethylamino)-1-phenylethyl 6,6-dimethyl-3-((S)-tetrahydrofuran-2-carboxamido)pyrrolo[3,4-c]pyrazole-5(1H,4H,6H)-carboxylate] |
| 335 | 178 | CN(C)CC(OC(=O)N1Cc2c(NC(=O)c3ccc(F)cc3)n[nH]c2C1(C)C)c1nccs1 (stereo not shown) [Example 93, 2-(dimethylamino)-1-(thiazol-2-yl)ethyl 3-(4-fluorobenzamido)-6,6-dimethylpyrrolo[3,4-c] pyrazole-5(1H,4H,6H)-carboxylate] |
| 161 | 413 | CN(C)CC(OC(=O)N1Cc2c(NC(=O)c3ccc(F)cc3)n[nH]c2C1(C)C)c1cccc2cccnc12 (stereo not shown) [Example 94, 2-(dimethylamino)-1-(quinolin-8-yl)ethyl 3-(4-fluorobenzamido)-6,6-dimethylpyrrolo[3,4-c] pyrazole-5(1H,4H,6H)-carboxylate] |
| 137 | 127 | CN(C)CC(OC(=O)N1Cc2c(NC(=O)c3ccc(F)cc3)n[nH]c2C1(C)C)c1ccc(C#N)cc1 (stereo not shown) [Example 95, 1-(4-cyanophenyl)-2-(dimethylamino)ethyl 3-(4-fluorobenzamido)-6,6-dimethylpyrrolo[3,4-c] pyrazole-5(1H,4H,6H)-carboxylate] |
| 12.5 | 59 | CN(C)C[C@@H](NC(=O)N1Cc2c(NC(=O)c3cccc(Oc4ccccc4)c3)n[nH]c2C1(C)C)c1ccccc1 [Example 96, N-[(1S)-2-(dimethylamino)-1-phenylethyl]-6,6-dimethyl-3-[(3-phenoxybenzoyl)amino]-4,6-dihydropyrrolo[3,4-c]pyrazole-5(1H)-carboxamide] |
| 110 | 1510 | CN(C)CC(CC(=O)N1Cc2c(NC(=O)c3cccs3)n[nH]c2C1(C)C)c1ccc(Cl)cc1 (stereo not shown) [Example 97, N-{5-[3-(4-chlorophenyl)-4-(dimethylamino)butanoyl]-6,6-dimethyl-1,4,5,6-tetrahydropyrrolo[3,4-c]pyrazol-3-yl}thiophene-2-carboxamide] |
| 67.9 | 423 | CC1(C)c2[nH]nc(NC(=O)c3cc4ccccc4s3)c2CN1C(=O)N[C@H](CO)c1ccccc1 [Example 99, 3-[(1-benzothien-2-ylcarbonyl)amino]-N-[(1S)-2-hydroxy-1-phenylethyl]-6,6-dimethyl-4,6-dihydropyrrolo[3,4-c]pyrazole-5(1H)-carboxamide] |
